# System: patients with uHTN
# Experiment: Study 124 Part 2: 2 mg baxdrostat monotherapy for 4 weeks, SBP and safety
# Assay type: in vivo, human
# Conditions: for AESI, % / AESI, e - Number of events / AESI, n - Number of subjects / SAEs, % / SAEs, e - Number of events / SAEs, n - Number of subjects / TEAEs Drug-Related, % / TEAEs Drug-Related, e - Number of events / TEAEs Drug-Related, n - Number of subjects / TEAEs Leading to death, % / TEAEs Leading to death, e - Number of events / TEAEs Leading to death, n - Number of subjects / TEAEs Leading to dosing discontinuation, % / TEAEs Leading to dosing discontinuation, e - Number of events / TEAEs Leading to dosing discontinuation, n - Number of subjects / TEAEs Leading to study discontinuation, % / TEAEs Leading to study discontinuation, e - Number of events / TEAEs Leading to study discontinuation, n - Number of subjects / TEAEs, % / TEAEs, e - Number of events / TEAEs, n - Number of subjects: Part 2
# Procedure: Study 124 is a double-blind, placebo-controlled, dose range finding, multicenter study conducted in patients with uHTN receiving background antihypertensive agent(s) that are either an ACEI or an ARB, an ACEI/ARB plus a thiazide diuretic, or an ACEI/ARB plus a calcium channel blocker. The study consists of two parts: Part 1 consists of an 8-week treatment period in which the patients are to be assigned to one of 4 dose groups in equal ratio testing 0.5 mg, 1 mg, and 2 mg baxdrostat effects compared to a placebo. Patients are to administer double-blind baxdrostat tablets once per day while they continue taking the background antihypertensive medications. After 8 weeks of double-blind treatment, patients were to enter part 2 of the study unless the patient was assigned to the 2 mg group and the SBP remains ≥130 mmHg. In part 2 of the study, all patients are to cease dosing with background antihypertensive medication and take only baxdrostat 2 mg dose as a monotherapy for 4 weeks.
# The secondary objectives are to evaluate the change from baseline in mean seated DBP with each of the selected dose strengths of baxdrostat compared to placebo after 8 weeks of treatment (Part 1), the change from baseline in 24-hour urine aldosterone and serum aldosterone levels with each of the selected dose strengths of baxdrostat compared to placebo after 8 weeks of treatment (Part 1), the percentage of patients achieving a mean seated SBP<130 mmHg (“responders”) with each of the selected dose strengths of baxdrostat compared to placebo after 8 weeks; and the change from baseline in 24-hour urine renin and serum renin levels with baxdrostat compared to placebo after 8 weeks of treatment. Patients who have completed the Part 2 study through Week 12 or who were considered withdrawn at the end of Part 1 may be eligible to enter a separate open label extension study (Study 130). Part 2 is an exploratory phase of the trial designed to evaluate the effect of 4 weeks of monotherapy with 2 mg baxdrostat in this hypertensive population, but the major goal of the Part 2 period is to transition patients to a long-term open label safety extension study of baxdrostat at the highest dose likely to be used in the hypertension population.
# In Part 2, background antihypertensive therapy was discontinued following Part 1, and patients took two mg Baxdrostat for four additional weeks. […] There were two cases of moderate hyperkalemia with K+>/=6.0 mEq/L in the 213 patients in Part 2; both patients had stopped diuretic at the start of Part 2 and developed transient moderate hyperkalemia within 2 weeks.
compound,measurement,setting,value
"CCC(=O)N[C@@H]1CCCc2c(-c3ccc4c(c3)CCC(=O)N4C)cncc21 [baxdrostat, (R)—N-(4-(1-methyl-2-oxo-1,2,3,4-tetrahydroquinolin-6-yl)-5,6,7,8-tetrahydroisoquinolin-8-yl) propionamide]",SBP between the start and the end of the four weeks,"2 mg only, after withdrawal of background medication",remained stable
same,safety and tolerability,"2 mg, 213 patients who entered Part 2",safe and well-tolerated
same,cases of moderate hyperkalemia with K+ >/=6.0 mEq/L,213 patients in Part 2,two cases
same,treatment emergent SAEs,"Part 2, 2 mg",4 events/3 patients with none deemed related to baxdrostat
same,"AESI, %","0.5 mg to 2 mg, n = 63",0%
same,"AESI, e - Number of events","0.5 mg to 2 mg, n = 63",0
same,"AESI, n - Number of subjects","0.5 mg to 2 mg, n = 63",0
same,"SAEs, %","0.5 mg to 2 mg, n = 63",0.0%
same,"SAEs, e - Number of events","0.5 mg to 2 mg, n = 63",0
same,"SAEs, n - Number of subjects","0.5 mg to 2 mg, n = 63",0
same,"TEAEs Drug-Related, %","0.5 mg to 2 mg, n = 63",5.6%
same,"TEAEs Drug-Related, e - Number of events","0.5 mg to 2 mg, n = 63",4
same,"TEAEs Drug-Related, n - Number of subjects","0.5 mg to 2 mg, n = 63",3
same,"TEAEs Leading to death, %","0.5 mg to 2 mg, n = 63",0.0%
same,"TEAEs Leading to death, e - Number of events","0.5 mg to 2 mg, n = 63",0
same,"TEAEs Leading to death, n - Number of subjects","0.5 mg to 2 mg, n = 63",0
same,"TEAEs Leading to dosing discontinuation, %","0.5 mg to 2 mg, n = 63",0%
same,"TEAEs Leading to dosing discontinuation, e - Number of events","0.5 mg to 2 mg, n = 63",0
same,"TEAEs Leading to dosing discontinuation, n - Number of subjects","0.5 mg to 2 mg, n = 63",0
same,"TEAEs Leading to study discontinuation, %","0.5 mg to 2 mg, n = 63",0.0%
same,"TEAEs Leading to study discontinuation, e - Number of events","0.5 mg to 2 mg, n = 63",0
same,"TEAEs Leading to study discontinuation, n - Number of subjects","0.5 mg to 2 mg, n = 63",0
same,"TEAEs, %","0.5 mg to 2 mg, n = 63",16.7%
same,"TEAEs, e - Number of events","0.5 mg to 2 mg, n = 63",15
same,"TEAEs, n - Number of subjects","0.5 mg to 2 mg, n = 63",9
same,"AESI, %","1 mg to 2 mg, n = 62",1.8%
same,"AESI, e - Number of events","1 mg to 2 mg, n = 62",1
same,"AESI, n - Number of subjects","1 mg to 2 mg, n = 62",1
same,"SAEs, %","1 mg to 2 mg, n = 62",1.8%
same,"SAEs, e - Number of events","1 mg to 2 mg, n = 62",2
same,"SAEs, n - Number of subjects","1 mg to 2 mg, n = 62",1
same,"TEAEs Drug-Related, %","1 mg to 2 mg, n = 62",8.8%
same,"TEAEs Drug-Related, e - Number of events","1 mg to 2 mg, n = 62",6
same,"TEAEs Drug-Related, n - Number of subjects","1 mg to 2 mg, n = 62",5
same,"TEAEs Leading to death, %","1 mg to 2 mg, n = 62",0.0%
same,"TEAEs Leading to death, e - Number of events","1 mg to 2 mg, n = 62",0
same,"TEAEs Leading to death, n - Number of subjects","1 mg to 2 mg, n = 62",0
same,"TEAEs Leading to dosing discontinuation, %","1 mg to 2 mg, n = 62",3.5%
same,"TEAEs Leading to dosing discontinuation, e - Number of events","1 mg to 2 mg, n = 62",3
same,"TEAEs Leading to dosing discontinuation, n - Number of subjects","1 mg to 2 mg, n = 62",2
same,"TEAEs Leading to study discontinuation, %","1 mg to 2 mg, n = 62",0.0%
same,"TEAEs Leading to study discontinuation, e - Number of events","1 mg to 2 mg, n = 62",0
same,"TEAEs Leading to study discontinuation, n - Number of subjects","1 mg to 2 mg, n = 62",0
same,"TEAEs, %","1 mg to 2 mg, n = 62",21.1%
same,"TEAEs, e - Number of events","1 mg to 2 mg, n = 62",26
same,"TEAEs, n - Number of subjects","1 mg to 2 mg, n = 62",12
same,"AESI, %","2 mg, n = 60",2.4%
same,"AESI, e - Number of events","2 mg, n = 60",1
same,"AESI, n - Number of subjects","2 mg, n = 60",1
same,"SAEs, %","2 mg, n = 60",0%
same,"SAEs, e - Number of events","2 mg, n = 60",0
same,"SAEs, n - Number of subjects","2 mg, n = 60",0
same,"TEAEs Drug-Related, %","2 mg, n = 60",0%
same,"TEAEs Drug-Related, e - Number of events","2 mg, n = 60",0
same,"TEAEs Drug-Related, n - Number of subjects","2 mg, n = 60",0
same,"TEAEs Leading to death, %","2 mg, n = 60",0.0%
same,"TEAEs Leading to death, e - Number of events","2 mg, n = 60",0
same,"TEAEs Leading to death, n - Number of subjects","2 mg, n = 60",0
same,"TEAEs Leading to dosing discontinuation, %","2 mg, n = 60",0%
same,"TEAEs Leading to dosing discontinuation, e - Number of events","2 mg, n = 60",0
same,"TEAEs Leading to dosing discontinuation, n - Number of subjects","2 mg, n = 60",0
same,"TEAEs Leading to study discontinuation, %","2 mg, n = 60",0.0%
same,"TEAEs Leading to study discontinuation, e - Number of events","2 mg, n = 60",0
same,"TEAEs Leading to study discontinuation, n - Number of subjects","2 mg, n = 60",0
same,"TEAEs, %","2 mg, n = 60",16.7%
same,"TEAEs, e - Number of events","2 mg, n = 60",9
same,"TEAEs, n - Number of subjects","2 mg, n = 60",7
same,"AESI, %","Placebo to 2 mg, n = 64",1.7%
same,"AESI, e - Number of events","Placebo to 2 mg, n = 64",2
same,"AESI, n - Number of subjects","Placebo to 2 mg, n = 64",1
same,"SAEs, %","Placebo to 2 mg, n = 64",3.3%
same,"SAEs, e - Number of events","Placebo to 2 mg, n = 64",2
same,"SAEs, n - Number of subjects","Placebo to 2 mg, n = 64",2
same,"TEAEs Drug-Related, %","Placebo to 2 mg, n = 64",5.0%
same,"TEAEs Drug-Related, e - Number of events","Placebo to 2 mg, n = 64",5
same,"TEAEs Drug-Related, n - Number of subjects","Placebo to 2 mg, n = 64",3
same,"TEAEs Leading to death, %","Placebo to 2 mg, n = 64",0.0%
same,"TEAEs Leading to death, e - Number of events","Placebo to 2 mg, n = 64",0
same,"TEAEs Leading to death, n - Number of subjects","Placebo to 2 mg, n = 64",0
same,"TEAEs Leading to dosing discontinuation, %","Placebo to 2 mg, n = 64",0%
same,"TEAEs Leading to dosing discontinuation, e - Number of events","Placebo to 2 mg, n = 64",0
same,"TEAEs Leading to dosing discontinuation, n - Number of subjects","Placebo to 2 mg, n = 64",0
same,"TEAEs Leading to study discontinuation, %","Placebo to 2 mg, n = 64",0.0%
same,"TEAEs Leading to study discontinuation, e - Number of events","Placebo to 2 mg, n = 64",0
same,"TEAEs Leading to study discontinuation, n - Number of subjects","Placebo to 2 mg, n = 64",0
same,"TEAEs, %","Placebo to 2 mg, n = 64",21.7%
same,"TEAEs, e - Number of events","Placebo to 2 mg, n = 64",24
same,"TEAEs, n - Number of subjects","Placebo to 2 mg, n = 64",13
same,"AESI, %","Total, n = 249",1.4%
same,"AESI, e - Number of events","Total, n = 249",4
same,"AESI, n - Number of subjects","Total, n = 249",3
same,"SAEs, %","Total, n = 249",1.4%
same,"SAEs, e - Number of events","Total, n = 249",4
same,"SAEs, n - Number of subjects","Total, n = 249",3
same,"TEAEs Drug-Related, %","Total, n = 249",5.2%
same,"TEAEs Drug-Related, e - Number of events","Total, n = 249",15
same,"TEAEs Drug-Related, n - Number of subjects","Total, n = 249",11
same,"TEAEs Leading to death, %","Total, n = 249",0.0%
same,"TEAEs Leading to death, e - Number of events","Total, n = 249",0
same,"TEAEs Leading to death, n - Number of subjects","Total, n = 249",0
same,"TEAEs Leading to dosing discontinuation, %","Total, n = 249",0.9%
same,"TEAEs Leading to dosing discontinuation, e - Number of events","Total, n = 249",3
same,"TEAEs Leading to dosing discontinuation, n - Number of subjects","Total, n = 249",2
same,"TEAEs Leading to study discontinuation, %","Total, n = 249",0.0%
same,"TEAEs Leading to study discontinuation, e - Number of events","Total, n = 249",0
same,"TEAEs Leading to study discontinuation, n - Number of subjects","Total, n = 249",0
same,"TEAEs, %","Total, n = 249",19.2%
same,"TEAEs, e - Number of events","Total, n = 249",74
same,"TEAEs, n - Number of subjects","Total, n = 249",41
